Assay results as given in patent US9249145B2, “Heterocyclic derivatives of pyrazol-4-yl-pyrrolo[2,3-d]pyrimidines as janus kinase inhibitors” (Incyte Holdings Corporation, priority 2009, dated 2016).
Structures can show the parent of a compound that is named as a salt.

Tests used:
Jak2 (a.a. 828-1132) = biological target: T1, Jak2 (a.a. 828-1132) (Homo sapiens, UniProt O60674); assay: In vitro JAK kinase assay (HTRF, phosphorylation of biotinylated peptide), JAK2; type: biochemical; settings: 1 mM ATP; Examples 12-91; read-out: JAK2 IC50 (nM) @ 1 mM ATP
T1 construct: Jak2 (a.a. 828-1132); His tag (N); made in house; host or cells: insect cells (baculovirus)
How it was run: (§1)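 IC50 from HTRF detection (Eu-Py20 antibody, SA-APC, 40 min) after EDTA quench. Reactions ran 1 h at room temperature with 500 nM biotinylated peptide in Tris pH 7.8 buffer with NaCl, DTT, BSA; ATP 90 μM for JAK1, 30 μM for JAK2 (Km), or 1 mM. Enzymes: His-tagged catalytic domains from insect cells.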

[1] = biological target: T2, human JAK1 (a.a. 837-1142) (Homo sapiens, UniProt P23458); assay: In vitro JAK kinase assay (HTRF, phosphorylation of biotinylated peptide), JAK1; type: biochemical; settings: 1 mM ATP; Examples 12-91; read-out: JAK1 IC50 (nM) @ 1 mM ATP
T2 construct: The catalytic domains of human JAK1 (a.a. 837-1142); His tag (N); made in house; host or cells: insect cells (baculovirus)
How it was run: as §1

T1 sequence (O60674 828-1132): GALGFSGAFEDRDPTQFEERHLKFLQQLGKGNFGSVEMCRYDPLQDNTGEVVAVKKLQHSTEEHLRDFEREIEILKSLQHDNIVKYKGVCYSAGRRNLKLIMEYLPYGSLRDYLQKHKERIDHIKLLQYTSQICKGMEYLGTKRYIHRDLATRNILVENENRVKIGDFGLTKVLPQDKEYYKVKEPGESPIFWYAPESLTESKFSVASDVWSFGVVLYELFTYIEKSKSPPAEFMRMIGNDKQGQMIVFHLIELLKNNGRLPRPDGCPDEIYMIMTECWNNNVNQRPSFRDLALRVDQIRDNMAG
T2 sequence (P23458 849-1154): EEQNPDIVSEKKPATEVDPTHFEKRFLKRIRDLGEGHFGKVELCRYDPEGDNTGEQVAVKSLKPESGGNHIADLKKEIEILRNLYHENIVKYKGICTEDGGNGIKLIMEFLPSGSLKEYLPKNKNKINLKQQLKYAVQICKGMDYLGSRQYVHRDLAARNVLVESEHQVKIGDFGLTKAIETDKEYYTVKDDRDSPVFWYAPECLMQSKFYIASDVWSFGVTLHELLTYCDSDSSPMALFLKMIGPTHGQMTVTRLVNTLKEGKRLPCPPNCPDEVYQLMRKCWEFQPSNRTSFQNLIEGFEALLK

N#CCC(CN1CCN(S(=O)(=O)c2cc(F)ccc2F)CC1)n1cc(-c2ncnc3[nH]ccc23)cn1 (centres unmarked) [Example 62, 3-(4-(7H-pyrrolo[2,3-d]pyrimidin-4-yl)-1H-pyrazol-1-yl)-4-(4-(2,5-difluorophenylsulfonyl)piperazin-1-yl)butanenitrile trifluoroacetate salt] gave an IC50 (Jak2 (a.a. 828-1132)) of less than 10 nM and an IC50 [1] of less than 10 nM.
